Test results from patent US20090325978A1, “STABLE LYOPHILIZED PREPARATION” (priority 2006, published 2009).

Experiments:
[1] = solubility of the compound represented by formula (1) in pH regulating solution, HPLC; format: physicochemical; conditions: thermodynamic from solid, 50 mM citric acid pH regulator with sucrose and polyethylene glycol 600, 1 hour at 5° C.
Experimental: 0.525 g of citric acid monohydrate was dissolved in injection-use distilled water, and a sodium hydroxide solution was used to adjust the pH while 5 g of sucrose and 1 g of polyethylene glycol 600 (stabilizer) were dissolved, thereby preparing 50 mL of various 50 mM pH regulators (with a pH of 5.6, 5.8, 6.0, 6.2, 6.4, or 6.6) containing sucrose and the stabilizer. 3 mL of the pH regulating solution thus prepared was put into a 5 mL vial containing approximately 9 mg of the compound represented by formula (1), and this was stored for 1 hour at 5° C. while being stirred. Thereafter, the solution (including a suspension) was filtered (0.22 μm filter), the first 1 mL of the filtrate was discarded, and the solution thus obtained was subjected to high-performance liquid chromatography (HPLC) to measure the concentration of the compound represented by formula (1), which was termed the solubility of the compound represented by formula (1). The pH of the solution was also measured at the same time.

[2] = pKa of the compound represented by formula (1); format: physicochemical
[3] = formulation study of the compound represented by formula (1): stability and crystal dissolution; format: physicochemical
[4] = system: VEGF (vascular endothelial growth factor) production; conditions: low-oxygen state in vitro; cited from earlier work
solid tumor cell = conditions: in vivo; cited from earlier work

solubility at 1 h ([1]; aqueous with cosolvent or surfactant or cyclodextrin, pH 5.79): > 2440 µg/mL
solubility at 1 h ([1]; aqueous with cosolvent or surfactant or cyclodextrin, pH 5.99): > 2310 µg/mL
solubility at 1 h ([1]; aqueous with cosolvent or surfactant or cyclodextrin, pH 6.51): > 2720 µg/mL
solubility at 1 h ([1]; aqueous with cosolvent or surfactant or cyclodextrin, pH 6.81): 2570 µg/mL
solubility at 1 h ([1]; aqueous with cosolvent or surfactant or cyclodextrin, pH 7.04): 1800 µg/mL
solubility at 1 h ([1]; pH 6.2, aqueous with cosolvent or surfactant or cyclodextrin, pH 6.20): > 2260 µg/mL
pKa [2]: ~7.9
stability in the form of a crystalline powder [3]: good stability
stability in solution ([3]; formulation of an injection): not sufficiently stable
crystal dissolution ([3]; packed powder): slow
Compound: CCC(O)C(C)C1OC1CC(C)(O)/C=C/C=C(\C)C1OC(=O)CC(O)CCC(C)(O)C(OC(=O)N2CCN(C3CCCCCC3)CC2)/C=C/C1C (stereo not drawn) [compound represented by formula (1), (8E,12E,14E)-7-((4-cycloheptylpiperazin-1-yl)carbonyl)oxy-3,6,16,21-tetrahydroxy-6, 10,12,16,20-pentamethyl-18,19-epoxytricosa-8,12,14-trien-11-olide]
action on VEGF production [4]: suppressing VEGF (vascular endothelial growth factor) production
action on solid tumor cell proliferation (solid tumor cell): suppressing solid tumor cell proliferation
